# Measured values as given in patent US11685719B2, “Pyridinone MK2 inhibitors and uses thereof” (Xinthera, Inc., priority 2021, dated 2023).
# Where two headings read alike, the source gives them in different places.
# Tests used:
# p38a/PRAK = p38a/PRAK (Homo sapiens (Human), UniProt Q16539); experiment: biochemical; conditions: 10-point 1:3 dilution, top dose 300 μM; 10 μM ATP, 2 h incubation; read-out: p38a/PRAK Enzyme pIC50 (converted)
# Procedure: (§1) Expression vectors of the recombinant MK2 and PRAK kinases were constructed by cloning of the codon optimized gene sequences of MK2 (Uniprot ID P49137, amino acid fragment F46-H400), or PRAK (Uniprot ID Q81W41, amino acid fragment M1-Q471) into pGEX-4T1 (GE) for over expression of these kinases with N-terminal GST-tag. Protein expression was carried out in E. coli BL21 by growing the hosts in TB medium, induction of protein expression with 0.5 mM IPTG at approximate 0.8 OD600, and incubation of the cultures at 18° C. for 14-20 hours afterwards. The harvested cells were resuspended in […] of Lysis buffer (50 mM Tris-HCl, pH 8.0, 500 mM NaCl, 1 mM DTT, 5% glycerol, and 1 mM PMSF) per gram of wet cell mass and homogenized at 4° C. in a microfluidizer (ATS, Suzhou, China) at 14,000 psi pressure, 3 passes. The cell lysates were clarified by centrifugation and the supernatants containing the GST-fusion proteins were purified by affinity chromatography using GSH-Sepharose (GE) gravity flow columns pre-equilibrated in Buffer A (50 mM Tris-HCl, pH 8.0, 500 mM NaCl, 1 mM DTT, and 5% glycerol). After thorough washing of the columns with Buffer A, the bound GST-proteins were eluted by Buffer B (50 mM Tris, pH 8.0, 500 mM NaCl, 1 mM DTT, 5% glycerol, 10 mM glutathione), followed by size-exclusion purification on Superdex 200 column equilibrated in Buffer A. The purified proteins were concentrated to approximately 1 mg/ml and stored at −80° C.
# (§2) This study evaluates the inhibitory potency of invention compound on p38/MK2 pathway vs p38/PRAK pathway. More specially the compound concentration (IC50) was determined that inhibited half of the maximal activation of MK2 or PRAK by p38. MK2 activation study was set up without or with a serial of 10-point 1:3 dilution of invention compound at top dose of 1 or 10 μM, and PRAK activation study was set up without or with a serial of 10-point 1:3 dilution of invention compound at top dose of 300 μM. The MIK2 and PRAK activity were determined by the phosphorylation level of HSP27 peptide conjugated with FITC.
# p38a/MK2 = p38a/MK2 (Homo sapiens (Human), UniProt P49137+Q16539); experiment: biochemical; conditions: 10-point 1:3 dilution, 10 μM ATP, 2 h incubation
# p38a/MK2, sequence (Q16539 whole entry): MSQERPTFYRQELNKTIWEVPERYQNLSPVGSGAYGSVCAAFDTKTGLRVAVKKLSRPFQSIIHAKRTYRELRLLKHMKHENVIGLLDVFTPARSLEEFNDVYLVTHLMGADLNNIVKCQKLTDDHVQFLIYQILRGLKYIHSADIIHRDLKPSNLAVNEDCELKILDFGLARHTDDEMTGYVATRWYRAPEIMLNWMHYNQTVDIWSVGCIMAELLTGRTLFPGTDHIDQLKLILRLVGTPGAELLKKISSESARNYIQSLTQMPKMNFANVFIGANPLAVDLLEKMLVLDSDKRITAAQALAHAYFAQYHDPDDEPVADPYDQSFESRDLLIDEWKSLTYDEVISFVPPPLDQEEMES
# p38a/MK2, sequence (P49137 46-400): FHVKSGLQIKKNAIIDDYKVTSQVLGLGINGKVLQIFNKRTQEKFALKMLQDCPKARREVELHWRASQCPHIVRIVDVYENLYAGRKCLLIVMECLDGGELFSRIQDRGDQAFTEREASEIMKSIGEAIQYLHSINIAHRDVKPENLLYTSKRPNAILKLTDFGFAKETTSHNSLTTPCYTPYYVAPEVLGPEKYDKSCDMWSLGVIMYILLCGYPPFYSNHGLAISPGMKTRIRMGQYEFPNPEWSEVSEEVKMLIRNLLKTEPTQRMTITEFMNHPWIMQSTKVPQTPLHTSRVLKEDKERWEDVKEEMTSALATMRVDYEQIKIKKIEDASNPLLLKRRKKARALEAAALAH
# Procedure: as §1, §2
# [1] = top dose 1 μM, read-out: p38a/MK2 (1 μM) Enzyme pIC50 (converted)
# [2] = top dose 10 μM, read-out: p38a/MK2 (10 μM) Enzyme pIC50 (converted)
# p38a/PRAK, sequence (Q16539 whole entry, the tested form may be a part): as the sequence (Q16539 whole entry) above
SMILES,IC50 (p38a/PRAK) [nM],IC50 (p38a/MK2; [1]) [nM],IC50 (p38a/MK2; [2]) [nM]
"Cc1cnc(-n2cccc(C(C)(C)O)c2=O)cc1-n1c(C)cc(OCc2ncc(F)cc2F)c(Cl)c1=O (single isomer, unassigned) [Example 1A, rel-3-chloro-4-[(3,5-difluoropyridin-2-yl)methoxy]-2′-[3-(2-hydroxypropan-2-yl)-2-oxopyridin-1-yl]-5′,6-dimethyl-[1,4′-bipyridin]-2-one]",3160,2,3.16
"Cc1cnc(-n2cccc(C(C)(C)CO)c2=O)cc1-n1c(C)cc(OCc2ncc(F)cc2F)c(Cl)c1=O (single isomer, unassigned) [Example 11A, rel-3-chloro-4-[(3,5-difluoropyridin-2-yl)methoxy]-2′-[3-(1-hydroxy-2-methylpropan-2-yl)-2-oxopyridin-1-yl]-5′,6-dimethyl-[1,4′-bipyridin]-2-one]",5010,3.98,
"Cc1ccc(-n2cccc(C(C)(C)O)c2=O)cc1-n1c(C)cc(OCc2ncc(F)cc2F)c(Cl)c1=O (single isomer, unassigned) [Example 2A, rel-3-chloro-4-[(3,5-difluoropyridin-2-yl)methoxy]-1-{5-[3-(2-hydroxypropan-2-yl)-2-oxopyridin-1-yl]-2-methylphenyl}-6-methylpyridin-2-one]",1260,3.98,
"[2H]C([2H])(Oc1cc(C)n(-c2cc(-n3cccc(C(C)(C)O)c3=O)ncc2C)c(=O)c1Cl)c1ncc(F)cc1F (single isomer, unassigned) [Example 18B, rel-3″-chloro-4″-((3,5-difluoropyridin-2-yl)methoxy-d2)-3-(2-hydroxypropan-2-yl)-5′,6″-dimethyl-2H,2″H-[1,2′:4′,1″-terpyridine]-2,2″-dione]",> 316000,> 100,
"[2H]C([2H])(Oc1cc(C)n(-c2cc(-n3cccc(C(C)(C)O)c3=O)ncc2C)c(=O)c1Cl)c1ncc(F)cc1F (single isomer, unassigned) [Example 18A, rel-3″-chloro-4″-((3,5-difluoropyridin-2-yl)methoxy-d2)-3-(2-hydroxypropan-2-yl)-5′,6″-dimethyl-2H,2″H-[1,2′:4′,1″-terpyridine]-2,2″-dione]",3160,1.58,
"Cc1cnc(-n2cccc([C@](C)(O)C3CC3)c2=O)cc1-n1c(C)cc(OCc2ncc(F)cc2F)c(Cl)c1=O (single isomer, unassigned) [Example 14C, rel-3-chloro-2′-[3-(1-cyclopropyl-1-hydroxyethyl)-2-oxopyridin-1-yl]-4-[(3,5-difluoropyridin-2-yl)methoxy]-5′,6-dimethyl-[1,4′-bipyridin]-2-one]",> 316000,> 1000,
"Cc1cnc(-n2ccc(C)c(C(C)(C)O)c2=O)cc1-n1c(C)cc(OCc2ncc(F)cc2F)c(Cl)c1=O (single isomer, unassigned) [Example 15B, rel-3-chloro-4-[(3,5-difluoropyridin-2-yl)methoxy]-2′-[3-(2-hydroxypropan-2-yl)-4-methyl-2-oxopyridin-1-yl]-5′,6-dimethyl-[1,4′-bipyridin]-2-one]",> 316000,> 1000,
"Cc1cnc(-n2cccc(C(C)(C)O)c2=O)cc1-n1c(C)cc(OCc2ncc(F)cc2F)c(Cl)c1=O (single isomer, unassigned) [Example 1B, rel-3-chloro-4-[(3,5-difluoropyridin-2-yl)methoxy]-2′-[3-(2-hydroxypropan-2-yl)-2-oxopyridin-1-yl]-5′,6-dimethyl-[1,4′-bipyridin]-2-one]",> 316000,,398
"[2H]C([2H])(Oc1cc(C)n(-c2cc(-n3cccc(C(C)(C)O)c3=O)ncc2C)c(=O)c1Cl)c1ncc(Cl)cc1F (single isomer, unassigned) [Example 21A, rel-3-chloro-4-[(5-chloro-3-fluoropyridin-2-yl)(2H2)methoxy]-2′-[3-(2-hydroxypropan-2-yl)-2-oxopyridin-1-yl]-5′,6-dimethyl-[1,4′-bipyridin]-2-one]",5010,1.26,
"Cc1cnc(-n2ccnc(C(C)(C)O)c2=O)cc1-n1c(C)cc(OCc2ncc(F)cc2Cl)c(Cl)c1=O (single isomer, unassigned) [Example 24A, rel-3-chloro-4-[(3-chloro-5-fluoropyridin-2-yl)methoxy]-2′-[3-(2-hydroxypropan-2-yl)-2-oxopyrazin-1-yl]-5′,6-dimethyl-[1,4′-bipyridin]-2-one]",> 316000,> 1000,
"COCc1cc(OCc2ncc(F)cc2F)c(Cl)c(=O)n1-c1cc(-n2cccc(C(C)(C)O)c2=O)ncc1C (single isomer, unassigned) [Example 3B, rel-3-chloro-4-[(3,5-difluoropyridin-2-yl)methoxy]-2′-[3-(2-hydroxypropan-2-yl)-2-oxopyridin-1-yl]-6-(methoxymethyl)-5′-methyl-[1,4′-bipyridin]-2-one]",> 316000,> 1000,
"Cc1cnc(-n2ccn(C(C)(C)CO)c2=O)cc1-n1c(C)cc(OCc2ncc(F)cc2F)c(Cl)c1=O (single isomer, unassigned) [Example 27A, rel-3-chloro-4-[(3,5-difluoropyridin-2-yl)methoxy]-2′-[3-(1-hydroxy-2-methylpropan-2-yl)-2-oxoimidazol-1-yl]-5′,6-dimethyl-[1,4′-bipyridin]-2-one]",> 316000,> 100,
"[2H]C([2H])(Oc1cc(C)n(-c2cc(-n3ccnc(C(C)(C)O)c3=O)ncc2C)c(=O)c1Cl)c1ncc(F)cc1F (single isomer, unassigned) [Example 19A, rel-3-chloro-4-((3,5-difluoropyridin-2-yl)methoxy-d2)-2′-(3-(2-hydroxypropan-2-yl)-2-oxopyrazin-1(2H)-yl)-5′,6-dimethyl-2H-[1,4′-bipyridin]-2-one]",1580,1,
"[2H]C([2H])(Oc1cc(C)n(-c2cc(-n3ccnc(C(C)(C)O)c3=O)ncc2C)c(=O)c1Cl)c1ncc(Cl)cc1F (single isomer, unassigned) [Example 20A, rel-3-chloro-4-((5-chloro-3-fluoropyridin-2-yl)methoxy-d2)-2′-(3-(2-hydroxypropan-2-yl)-2-oxopyrazin-1(2H)-yl)-5′,6-dimethyl-2H-[1,4′-bipyridin]-2-one]",3160,1,
"Cc1cnc(-n2cccc([C@](C)(O)C3CC3)c2=O)cc1-n1c(C)cc(OCc2ncc(F)cc2F)c(Cl)c1=O (single isomer, unassigned) [Example 14A, rel-3-chloro-2′-[3-(1-cyclopropyl-1-hydroxyethyl)-2-oxopyridin-1-yl]-4-[(3,5-difluoropyridin-2-yl)methoxy]-5′,6-dimethyl-[1,4′-bipyridin]-2-one]",3160,1.58,
"[2H]C([2H])(Oc1cc(C)n(-c2cc(-n3cccc(C(C)(C)O)c3=O)ncc2C)c(=O)c1Cl)c1ncc(F)cc1Cl (single isomer, unassigned) [Example 23A, rel-4′-{3-chloro-4-[(3-chloro-5-fluoropyridin-2-yl)(2H2)methoxy]-6-methyl-2-oxopyridin-1-yl}-3-(2-hydroxypropan-2-yl)-5′-methyl-[1,2′-bipyridin]-2-one]",6310,2.51,
"[2H]C([2H])(Oc1cc(C)n(-c2cc(-n3ccnc(C(C)(C)O)c3=O)ncc2C)c(=O)c1Cl)c1ncc(F)cc1Cl (single isomer, unassigned) [Example 22B, rel-3-chloro-4-((3-chloro-5-fluoropyridin-2-yl)methoxy-d2)-2′-(3-(2-hydroxypropan-2-yl)-2-oxopyrazin-1(2H)-yl)-5′,6-dimethyl-2H-[1,4′-bipyridin]-2-one]",> 316000,> 100,
"Cc1cnc(-n2nccc(C(C)(C)O)c2=O)cc1-n1c(C)cc(OCc2ncc(F)cc2F)c(Cl)c1=O (single isomer, unassigned) [Example 9B, rel-3-chloro-4-[(3,5-difluoropyridin-2-yl)methoxy]-2′-[5-(2-hydroxypropan-2-yl)-6-oxopyridazin-1-yl]-5′,6-dimethyl-[1,4′-bipyridin]-2-one]",> 316000,> 1000,
